# In patent US5444151A, “Platelet derived growth factor antagonists” (Ludwig Institute for Cancer Research, priority 1992, dated 1995):
# “Also recorded” adds a separate entry of the source. Like-named read-outs stand apart in the source and are kept apart here. Numbered stars: 1 amine (or outer) side, 2 acyl side, 3 side chain; on linkers, the order of the positions; unused ones are H or OH. Square brackets hold non-standard residues; d marks the D form. Ends that are not written are not given here. Peptide text beside a SMILES is read from it. X2 = O=C([C@H](Cc1c(Sc2ccccc2[N+](=O)[O-])[nH]c2ccccc12)N[*:1])[*:2]
# Experiments:
# [1] = tested on: human foreskin fibroblasts; assay: Ligand stimulated [3H]thymidine incorporation; assay type: cell-based; conditions: for [3H]thymidine incorporation, ligand alone: no peptide (unstimulated control 483 cpm); for [3H]thymidine incorporation, ligand alone / [3H]thymidine incorporation, Control / [3H]thymidine incorporation, EGF / [3H]thymidine incorporation, PDGF-AA / [3H]thymidine incorporation, PDGF-BB: mean of duplicates; for Effect on ligand stimulated [3H]thymidine incorporation (in words): PDGF-AA, PDGF-BB or EGF stimulation; for [3H]thymidine incorporation, Control / [3H]thymidine incorporation, EGF / [3H]thymidine incorporation, PDGF-AA / [3H]thymidine incorporation, PDGF-BB: peptide present; for [3H]thymidine incorporation, Control: no ligand; for [3H]thymidine incorporation, EGF: stimulated with EGF; for [3H]thymidine incorporation, PDGF-AA: stimulated with PDGF-AA; for [3H]thymidine incorporation, PDGF-BB: stimulated with PDGF-BB
# Excerpt: The possible role of peptide 16T as an antagonist for PDGF activity in vivo was investigated. Following the methodology of Betsholtz et al., J. Cell Physiol 118: 203-210 (1984), the disclosure of which is incorporated by reference, [^3 H] thymidine incorporation by human fibroblasts in the presence of various peptides was studied.
# PDGF-β receptor [2] = target: T1, PDGF-β receptor (Homo sapiens, UniProt P09619); assay: Competition with 125I-PDGF-BB for binding to AG1518 fibroblasts (α receptor down regulated by PDGF-AA preincubation)
# T1 construct: cultures of human foreskin fibroblast cell line AG1518; endogenous in cells; host or cells: AG1518 human foreskin fibroblasts (Human Mutant Cell Repository)
# T1 sequence (P09619 33-1106): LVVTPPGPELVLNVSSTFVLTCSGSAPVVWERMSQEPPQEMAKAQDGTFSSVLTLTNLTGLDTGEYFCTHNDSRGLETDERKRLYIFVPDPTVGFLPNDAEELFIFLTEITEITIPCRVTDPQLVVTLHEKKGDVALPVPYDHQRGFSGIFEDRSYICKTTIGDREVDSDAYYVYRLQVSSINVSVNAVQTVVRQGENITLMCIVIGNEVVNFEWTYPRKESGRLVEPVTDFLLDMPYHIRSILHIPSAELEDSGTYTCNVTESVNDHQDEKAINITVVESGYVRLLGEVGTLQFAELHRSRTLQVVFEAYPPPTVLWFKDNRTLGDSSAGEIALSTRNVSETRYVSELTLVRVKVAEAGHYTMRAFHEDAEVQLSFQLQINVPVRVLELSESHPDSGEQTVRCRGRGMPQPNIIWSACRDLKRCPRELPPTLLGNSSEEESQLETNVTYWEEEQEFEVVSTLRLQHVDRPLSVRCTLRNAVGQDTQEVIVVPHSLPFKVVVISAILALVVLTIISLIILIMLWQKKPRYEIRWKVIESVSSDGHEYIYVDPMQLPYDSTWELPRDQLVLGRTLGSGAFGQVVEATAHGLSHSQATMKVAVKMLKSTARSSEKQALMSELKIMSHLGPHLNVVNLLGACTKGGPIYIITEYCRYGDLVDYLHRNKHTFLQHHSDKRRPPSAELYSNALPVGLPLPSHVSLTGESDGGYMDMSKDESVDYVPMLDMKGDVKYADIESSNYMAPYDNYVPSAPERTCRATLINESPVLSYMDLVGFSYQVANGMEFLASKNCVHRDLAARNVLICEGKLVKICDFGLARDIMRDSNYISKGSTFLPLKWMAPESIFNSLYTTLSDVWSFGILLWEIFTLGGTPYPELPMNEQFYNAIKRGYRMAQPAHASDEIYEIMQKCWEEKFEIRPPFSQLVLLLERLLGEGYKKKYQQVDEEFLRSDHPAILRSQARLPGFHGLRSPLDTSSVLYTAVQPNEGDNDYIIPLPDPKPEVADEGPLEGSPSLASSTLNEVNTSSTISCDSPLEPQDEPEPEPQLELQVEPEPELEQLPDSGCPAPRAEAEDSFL
# Method: (§1) In order to test for receptor binding, cultures of human foreskin fibroblast cell line AG1518 (obtained from the Human Mutant Cell Repository), were grown to confluence in Ham's F-12 medium containing 10% newborn calf serum. Those cells which were to be used in analysis of PDGF-β receptor binding were preincubated for 60 minutes at 37° C. in 0.5 ml/well of Ham's F-12 medium, supplemented with 1 mg/ml of bovine serum albumin (BSA), and 50 ng/ml of PDGF-AA. This combination down regulates PDGF-α receptor, as per Claesson-Welsh et al., J. Biol. Chem. 264: 1742-1747 (1989).
# (§2) Cells were prepared for receptor binding analyses by washing with ice cold binding buffer (phosphate buffered saline with 0.9 mM CaCl2, 0.49 mM MgSO4 and 1 mg/ml BSA). The cells were then incubated on ice for 90 minutes with different concentrations (0-100 ug/ml) of synthetic peptides (listed in Table 1, infra), in 0.5 ml of binding buffer per well. […] The labelled ligand was added and then incubated for 60 minutes at 0° C. after which the cells were washed five times with ice cold binding buffer. The washed cells were then lysed for 60 minutes at room temperature in a lysis buffer (1% Triton X-100, 10% glycerol, 20 mM Tris-HCl, pH 7.5). Solubilized radioactivity was determined in a gamma counter. Competing activities of synthetic peptides were compared to standard curves, using unlabelled ligand.
# In Table 2, "+++" means <30 μM; "++" from 30-60 μM; "+" 60-150 μM; and "-", >150 μM.
# PDGF-α receptor = target: T2, PDGF-α receptor (Homo sapiens, UniProt P16234); assay: Competition with 125I-PDGF-AA for binding to AG1518 fibroblasts; conditions: for Receptor competing activity, PDGF-AA binding (in words): AG1518 cells
# T2 construct: cultures of human foreskin fibroblast cell line AG1518; endogenous in cells; host or cells: AG1518 human foreskin fibroblasts
# T2 sequence (P16234 24-1089): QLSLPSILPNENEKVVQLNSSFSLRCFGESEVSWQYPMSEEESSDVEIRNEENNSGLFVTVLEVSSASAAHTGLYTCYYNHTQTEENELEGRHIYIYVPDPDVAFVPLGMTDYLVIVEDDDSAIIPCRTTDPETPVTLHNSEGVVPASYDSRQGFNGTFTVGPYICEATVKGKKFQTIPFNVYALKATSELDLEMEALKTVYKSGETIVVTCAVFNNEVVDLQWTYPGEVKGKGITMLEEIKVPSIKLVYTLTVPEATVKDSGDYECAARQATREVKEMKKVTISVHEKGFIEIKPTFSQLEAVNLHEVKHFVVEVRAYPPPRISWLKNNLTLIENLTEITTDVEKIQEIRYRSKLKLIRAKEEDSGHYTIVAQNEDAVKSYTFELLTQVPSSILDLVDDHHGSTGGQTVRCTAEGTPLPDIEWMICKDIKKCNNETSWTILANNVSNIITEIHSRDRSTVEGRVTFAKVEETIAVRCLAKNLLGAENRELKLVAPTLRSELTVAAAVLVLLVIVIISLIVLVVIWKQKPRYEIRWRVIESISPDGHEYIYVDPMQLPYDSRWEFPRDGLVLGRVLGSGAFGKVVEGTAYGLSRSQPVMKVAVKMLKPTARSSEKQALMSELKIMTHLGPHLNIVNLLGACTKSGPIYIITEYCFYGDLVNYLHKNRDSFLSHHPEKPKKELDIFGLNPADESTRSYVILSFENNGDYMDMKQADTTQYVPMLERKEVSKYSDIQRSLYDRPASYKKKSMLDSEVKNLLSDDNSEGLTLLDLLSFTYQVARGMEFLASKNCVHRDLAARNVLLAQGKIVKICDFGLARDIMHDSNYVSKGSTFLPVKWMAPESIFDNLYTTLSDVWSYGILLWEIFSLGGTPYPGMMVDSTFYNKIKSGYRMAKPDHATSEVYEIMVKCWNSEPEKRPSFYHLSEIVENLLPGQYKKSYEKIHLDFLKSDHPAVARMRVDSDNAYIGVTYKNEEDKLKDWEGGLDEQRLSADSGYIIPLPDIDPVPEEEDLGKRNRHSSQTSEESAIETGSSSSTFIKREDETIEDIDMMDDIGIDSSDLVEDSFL
# Method: as §1, §2
# EGF receptor [3] = target: T3, EGF receptor (Homo sapiens, UniProt P00533); assay: Competition with 125I-EGF for binding to AG1518 fibroblasts
# T3 construct: cultures of human foreskin fibroblast cell line AG1518; endogenous in cells; host or cells: human foreskin fibroblasts (AG1518)
# T3 sequence (P00533 25-1210): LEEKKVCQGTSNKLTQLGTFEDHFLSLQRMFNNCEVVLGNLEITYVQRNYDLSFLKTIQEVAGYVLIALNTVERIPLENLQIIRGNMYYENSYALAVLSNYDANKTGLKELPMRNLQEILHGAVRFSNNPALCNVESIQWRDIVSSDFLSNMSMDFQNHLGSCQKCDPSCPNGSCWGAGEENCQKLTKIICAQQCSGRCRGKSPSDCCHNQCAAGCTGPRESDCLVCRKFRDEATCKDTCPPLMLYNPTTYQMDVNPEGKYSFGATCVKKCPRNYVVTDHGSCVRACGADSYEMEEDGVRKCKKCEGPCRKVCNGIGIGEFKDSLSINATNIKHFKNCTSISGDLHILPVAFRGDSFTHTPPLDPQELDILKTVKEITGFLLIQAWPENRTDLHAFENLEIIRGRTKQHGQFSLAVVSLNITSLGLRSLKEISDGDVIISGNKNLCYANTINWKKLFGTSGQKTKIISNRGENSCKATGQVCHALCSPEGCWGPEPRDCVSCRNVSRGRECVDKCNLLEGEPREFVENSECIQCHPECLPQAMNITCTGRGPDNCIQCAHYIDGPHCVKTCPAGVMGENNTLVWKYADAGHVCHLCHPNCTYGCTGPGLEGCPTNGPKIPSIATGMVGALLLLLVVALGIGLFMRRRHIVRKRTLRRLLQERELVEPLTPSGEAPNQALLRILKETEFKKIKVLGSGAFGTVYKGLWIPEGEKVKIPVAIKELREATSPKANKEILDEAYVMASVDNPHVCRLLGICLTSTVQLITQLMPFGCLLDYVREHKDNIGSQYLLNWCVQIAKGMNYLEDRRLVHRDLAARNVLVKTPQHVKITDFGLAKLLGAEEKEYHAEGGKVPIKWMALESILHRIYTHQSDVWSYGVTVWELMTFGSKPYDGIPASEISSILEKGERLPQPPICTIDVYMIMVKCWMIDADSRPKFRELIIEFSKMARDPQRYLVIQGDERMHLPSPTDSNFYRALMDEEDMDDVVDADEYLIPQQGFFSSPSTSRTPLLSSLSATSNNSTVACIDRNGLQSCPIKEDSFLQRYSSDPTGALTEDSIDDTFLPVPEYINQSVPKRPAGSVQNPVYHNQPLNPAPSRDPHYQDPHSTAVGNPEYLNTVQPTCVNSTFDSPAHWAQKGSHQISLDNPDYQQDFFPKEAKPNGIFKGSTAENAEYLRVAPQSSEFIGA
# Method: as §1, §2
# PDGF-β receptor [4] = target: T4, PDGF-β receptor (Sus scrofa, UniProt A0A8W4FFG6); assay: Autophosphorylation and dimerization of partially purified PDGF-β receptor; assay type: biochemical, porcine
# T4 construct: from Triton X-100 solubilized porcine uterus membranes and purified up to the Mono-Q chromatography step; from tissue; host or cells: porcine uterus membranes
# T4 sequence (A0A8W4FFG6 32-1102): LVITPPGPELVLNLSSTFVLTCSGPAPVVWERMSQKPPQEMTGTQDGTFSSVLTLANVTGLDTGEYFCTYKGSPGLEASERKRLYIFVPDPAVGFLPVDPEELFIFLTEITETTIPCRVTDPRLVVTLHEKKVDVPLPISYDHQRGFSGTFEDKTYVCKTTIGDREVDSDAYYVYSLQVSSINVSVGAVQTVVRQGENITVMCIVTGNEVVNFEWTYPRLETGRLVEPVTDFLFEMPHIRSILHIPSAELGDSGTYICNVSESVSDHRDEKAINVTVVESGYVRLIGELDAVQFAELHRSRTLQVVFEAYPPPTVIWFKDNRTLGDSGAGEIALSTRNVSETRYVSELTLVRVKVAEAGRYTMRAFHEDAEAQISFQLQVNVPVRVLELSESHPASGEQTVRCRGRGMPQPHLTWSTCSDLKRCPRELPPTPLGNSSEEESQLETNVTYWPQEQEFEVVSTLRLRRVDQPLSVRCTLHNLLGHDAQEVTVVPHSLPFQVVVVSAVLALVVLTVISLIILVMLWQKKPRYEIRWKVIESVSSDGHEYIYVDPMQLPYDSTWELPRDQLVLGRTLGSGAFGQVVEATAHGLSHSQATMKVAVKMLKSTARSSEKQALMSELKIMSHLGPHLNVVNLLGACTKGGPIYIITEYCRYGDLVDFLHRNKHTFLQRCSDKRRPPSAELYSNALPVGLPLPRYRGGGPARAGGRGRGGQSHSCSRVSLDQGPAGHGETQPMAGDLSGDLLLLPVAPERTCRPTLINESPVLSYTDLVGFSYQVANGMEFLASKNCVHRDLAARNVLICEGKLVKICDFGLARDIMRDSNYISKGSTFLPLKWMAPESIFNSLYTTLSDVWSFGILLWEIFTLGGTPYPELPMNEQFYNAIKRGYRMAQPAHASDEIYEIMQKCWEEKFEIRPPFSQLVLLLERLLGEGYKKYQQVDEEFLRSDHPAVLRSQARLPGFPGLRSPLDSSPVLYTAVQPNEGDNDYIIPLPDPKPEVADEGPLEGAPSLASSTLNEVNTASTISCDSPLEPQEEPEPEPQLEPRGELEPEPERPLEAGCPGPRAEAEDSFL
# Method: A preparation of PDGF-β receptor, from Triton X-100 solubilized porcine uterus membranes and purified up to the Mono-Q chromatography step of Ronnstrand et al., J. Biol. Chem. 262: 2929-2932 (1987), was made, and the autophosphorylation assay described therein was carried out.
# Approximately 100 ng of the receptor was incubated for 5 minutes at 0° C. with peptide 16T or peptide 20, at different concentrations. […] Four ul of 150 μM [^32 P]ATP (containing 5×10^6 cpm of radioactivity) was added, followed by an additional 10 minutes of incubation at 0° C. Incorporation of radioactivity was terminated by adding 5 μl of 15 mM unlabelled ATP and 5 μl of 40 mM phenylphosphate. Samples were cross linked by incubating with 0.5 mM DSS (12.5 mM, in dimethyl sulfoxide) for 30 minutes at room temperature. The cross linking reaction was blocked by adding 50 mM methylammonium chloride, 20 mM Hepes, pH 7.4.
# PDGF receptors = assay: PDGF-BB induced receptor dimerization and autophosphorylation in intact cells; assay type: cell-based, human; conditions: PDGF-BB 300 ng/ml, intact fibroblasts
# Method: (§3) Confluent human foreskin fibroblast cells were used (25 cm^2 dishes of cultures). The cells were washed twice with binding buffer, as described supra, with 1 mg/ml BSA added thereto. This was followed by 90 minutes of incubation with one of synthetic peptides 16, […], 20 and […] on ice. […] A dimerization assay was then carried out, basically following Eriksson et al., Growth Factors 6: 1-14 (1992). Essentially, receptors were cross linked for 20 minutes at room temperature in 1 mM BS^3 (Bis(sulfosuccinimidyl)suberate) in lysis buffer (0.5% Triton X-100, 0.5% deoxycholate, […], pH 7.4, 150 mM NaCl, 10 mM EDTA, 1 mM PMSF (phenylmethylsulfonyl fluoride), 1% Trasylol (aprotinin), 100 μM ortovandat, a phosphatase inhibitor). Cross linking was quenched by adding 70 mM methylammonium chloride for 10 minutes. Samples were then subjected to SDS gel electrophoresis in 4% slab gels, followed by electroblotting on to nitrocellulose membranes. The blocked membranes were incubated for two hours with affinity purified phosphotyrosine antibodies (Ek et al., J. Biol. Chem. 259: 1145-11152 (1984)), followed by three washes. Blots were then incubated for 45 minutes with peroxidase conjugated, affinity purified swine antirabbit IgG immunoglobulin. After an additional three washes, complexes were visualized using the ECL developing system.
# EGF receptor [5] = target: T3, EGF receptor; assay: EGF induced receptor dimerization and autophosphorylation in intact cells; assay type: cell-based; conditions: EGF 300 ng/ml, intact fibroblasts
# Method: as §3
# [6] = AG1518 cells, 0° C., asterisk = homogeneous peptide, otherwise crude
# [7] = read-out: Inhibitory Activity: ability to compete with PDGF-BB for binding (peptide needed to decrease binding by 50%), AG1518 cells, 0° C., asterisk = homogeneous peptide, otherwise crude
# [8] = AG1518 cells, competing activity
compound,measurement,setting,value
PDGF-AA: platelet derived growth factor A chain homodimer,"[3H]thymidine incorporation, ligand alone",[1],677 cpm
same,Stimulation of [3H]thymidine incorporation by ligand,"[1]; no peptide, versus unstimulated control",lower stimulation
"EGF: ligand of the EGF receptor, used as control growth factor","[3H]thymidine incorporation, ligand alone",[1],2591 cpm
"EAFIKWLVRNKVP [*20, reference compound]",IC50,PDGF-β receptor [2]; [6],> 150 µM
ANFLVWPPCVEVQLRPVQVRKIEIVRKKP [Peptide 7],IC50,PDGF-β receptor [2]; [7],< 30 µM
same,IC50,"PDGF-β receptor [2]; β receptor, read-out: 50% competition for receptor binding",~6 µM
same,IC50,"PDGF-α receptor; α receptor, read-out: 50% competition for receptor binding",~6 µM
WPPCVEVQLRPVQVRKIEIVRKKP [Peptide 8],"Receptor competing activity, PDGF-BB binding (in words)",PDGF-β receptor [2]; [8],nearly devoid of activity
same,IC50,PDGF-β receptor [2]; [7],> 150 µM
ANFLVWEIVRKKP [Peptide 16],IC50,PDGF-β receptor [2]; [6],< 30 µM
same,"Receptor competing activity, PDGF-BB binding (in words)",PDGF-β receptor [2]; [8],maintained most of the receptor competing activity; also recorded: marginal effect
same,"Receptor competing activity, PDGF-AA binding (in words)",PDGF-α receptor,marginal effect
same,"Receptor competing activity, PDGF-AA binding (in words)",PDGF-α receptor; listed as 16*,very low activity
same,Competition for binding of 125I-EGF to the EGF receptor (in words),EGF receptor [3],"none of peptides 16, 16T, 20 and 20T compete"
same,Effect on ligand stimulated [3H]thymidine incorporation (in words),[1],"did inhibit PDGF-AA and PDGF-BB induced mitogenicity, but also EGF induced mitogenicity"
same,"[3H]thymidine incorporation, Control",[1],241 cpm
same,"[3H]thymidine incorporation, EGF",[1],216 cpm
same,"[3H]thymidine incorporation, PDGF-AA",[1],242 cpm
same,"[3H]thymidine incorporation, PDGF-BB",[1],281 cpm
same,Amount of peptide giving complete inhibition of dimerization and autophosphorylation,"PDGF-β receptor [4]; nearly complete for 16T, complete for 16, about 100 ng receptor, 100 ng PDGF-BB, 40 ul",20 µg
same,Effect on dimerization and autophosphorylation (in words),PDGF-β receptor [4]; peptide 20: concentrations up to 20 μg,intermediate effect
KIEIVRKKPIFKKATVTLEDHLASKC [Peptide 1],IC50,PDGF-β receptor [2]; [7],> 150 µM
CC[C@H](C)[C@H](NC(=O)[C@H](CCC(=O)O)NC(=O)[C@H](Cc1c(Sc2ccccc2[N+](=O)[O-])[nH]c2ccccc12)NC(=O)[C@@H](NC(=O)[C@H](CC(C)C)NC(=O)[C@H](Cc1ccccc1)NC(=O)[C@H](CC(N)=O)NC(=O)[C@H](C)N)C(C)C)C(=O)N[C@H](C(=O)N[C@@H](CCCNC(=N)N)C(=O)N[C@@H](CCCCN)C(=O)N[C@@H](CCCCN)C(=O)N1CCC[C@H]1C(=O)O)C(C)C [*16NPS] (H-ANFLV[X2]EIVRKKP-OH; N-terminus and C-terminus assumed),IC50,PDGF-β receptor [2]; [6],< 30 µM
same,"Receptor competing activity, PDGF-BB binding (in words)","PDGF-β receptor [2]; AG1518 cells, general text statements on competing activity placed here, listed as 16 NPS",more active as an antagonist than peptide 16
same,"Receptor competing activity, PDGF-BB binding (in words)","PDGF-β receptor [2]; AG1518 cells, general text statements on competing activity placed here, listed as 16NPS",increased activity as an antagonist
"CC[C@H](C)[C@H](NC(=O)[C@H](Cc1ccccc1)NC(=O)[C@H](C)NC(=O)[C@@H](N)CCC(=O)O)C(=O)N[C@@H](CCCCN)C(=O)N[C@@H](Cc1c(-c2ccc(SC)cc2)[nH]c2ccccc12)C(=O)N[C@@H](CC(C)C)C(=O)N[C@H](C(=O)N[C@@H](CCCNC(=N)N)C(=O)N[C@@H](CC(N)=O)C(=O)N[C@@H](CCCCN)C(=O)N[C@H](C(=O)N1CCC[C@H]1C(=O)O)C(C)C)C(C)C [*20T, reference compound]","Receptor competing activity, PDGF-BB binding (in words)",PDGF-β receptor [2]; [8],did not compete for binding
same,"Receptor competing activity, PDGF-AA binding (in words)",PDGF-α receptor,did not compete for binding
same,Competition for binding of 125I-EGF to the EGF receptor (in words),EGF receptor [3],"none of peptides 16, 16T, 20 and 20T compete"
same,Effect on ligand stimulated [3H]thymidine incorporation (in words),[1],some non specific inhibition activity
same,"[3H]thymidine incorporation, Control",[1],456 cpm
same,"[3H]thymidine incorporation, EGF",[1],515 cpm
same,"[3H]thymidine incorporation, PDGF-AA",[1],489 cpm
same,"[3H]thymidine incorporation, PDGF-BB",[1],836 cpm
same,Effect on PDGF induced autophosphorylation and dimerization (in words),PDGF receptors,no effect whatsoever
same,Effect on EGF induced autophosphorylation and dimerization (in words),EGF receptor [5],no effect whatsoever
CRPTQVQLRPVQVRKIEIVRKKP [Peptide 2],IC50,PDGF-β receptor [2]; [7],> 150 µM
